Like-named read-outs stand apart in the source and are kept apart here.
[1] = 8 mg continuous, selected regimen 3 (n = 99)
[2] = 8 mg continuous, selected regimen 3 (n = 99), Table 14
[3] = 10 mg intermittent, regimen 1 (n = 33)

Description: Study treatment was administered on 28-day cycles. Prior to interim analysis 1, there were 2 treatment regimens. Patients were randomized 1:1 to 28-day cycles to the following 2 regimens until a regimen was selected for further study: Regimen 1 (10 mg once daily intermittent (7 days on/7 days); Regimen 2 (6 mg once daily continuous). Randomization was stratified according to performance status (0 to 1 vs. 2), hemoglobin value (<10 vs. ≥10 g per dl), FGFR alteration type (mutation vs. fusion), prior treatment status (chemotherapy-resistant vs. chemotherapy naïve), and disease distribution (presence or absence of visceral [liver, lung, bone] metastases). Starting dose selection was based on phase 1 efficacy and tolerability.
Thus, after interim analysis, this became a single-arm study. […] Treatment continued until disease progression or unacceptable adverse event(s) per investigator.
All objective responses required confirmation by an additional investigator assessment within 4 to 6 weeks of first assessment. Disease evaluations for regimen 3 were also performed by an independent radiographic review committee. […] Safety was evaluated based on clinical laboratory tests, physical exams, electrocardiograms, and ophthalmology examinations. Adverse events and abnormalities were assessed by investigator and graded per NCI CTCAE v.4.0
Prophylactic measures were taken to minimize risk of common adverse events related to FGFR inhibition. To reduce risk of hyperphosphatemia, a low-phosphate diet was recommended for all patients (600 to 800 mg of dietary phosphate intake per day). To reduce the risk of skin effects, the application of alcohol-free emollient moisturizing cream and avoidance of unnecessary exposure to sunlight, soap, perfumed products, and hot baths was recommended. Patients were asked to keep their fingers and toes clean and nails trimmed to reduce risk of nail effects.
Additional ophthalmology examinations were performed if clinically indicated.

Structure (SMILES): COc1cc(OC)cc(N(CCNC(C)C)c2ccc3ncc(-c4cnn(C)c4)nc3c2)c1 [erdafitinib, N-(3,5-dimethoxy-phenyl)-N′-(1-methylethyl)-N-[3-(1-methyl-1H-pyrazol-4-yl)quinoxalin-6-yl]ethane-1,2-diamine]
- Patients with Hyperphosphatemia, Grade ≥3 [1]: 2 (2) no. (%)
- Patients with Hypomagnesemia, Any grade [1]: 10 (10) no. (%)
- Patients with Hypomagnesemia, Grade 1 [1]: 9 (9) no. (%)
- Patients with Hypomagnesemia, Grade 2 [1]: 1 (1) no. (%)
- Patients with Hypomagnesemia, Grade ≥3 [1]: 0 no. (%)
- Patients with Hyponatremia, Any grade [1]: 12 (12) no. (%)
- Patients with Hyponatremia, Grade 1 [1]: 1 (1) no. (%)
- Patients with Hyponatremia, Grade 2 [1]: 0 no. (%)
- Patients with Hyponatremia, Grade ≥3 [1]: 11 (11) no. (%)
- Patients with Insomnia, Any grade [1]: 7 (7) no. (%)
- Patients with Insomnia, Grade 1 [1]: 4 (4) no. (%)
- Patients with Insomnia, Grade 2 [1]: 3 (3) no. (%)
- Patients with Insomnia, Grade ≥3 [1]: 0 no. (%)
- Patients with Lacrimation increased, Any grade [1]: 11 (11) no. (%)
- Patients with Lacrimation increased, Grade 1 [1]: 8 (8) no. (%)
- Patients with Lacrimation increased, Grade 2 [1]: 3 (3) no. (%)
- Patients with Lacrimation increased, Grade ≥3 [1]: 0 no. (%)
- Patients with Nail dystrophy, Any grade [1]: 16 (16) no. (%)
- Patients with Nail dystrophy, Grade 1 [1]: 5 (5) no. (%)
- Patients with Nail dystrophy, Grade 2 [1]: 5 (5) no. (%)
- Patients with Nail dystrophy, Grade ≥3 [1]: 6 (6) no. (%)
- Patients with Nausea, Any grade [1]: 20 (20) no. (%)
- Patients with Nausea, Grade 1 [1]: 13 (13) no. (%)
- Patients with Nausea, Grade 2 [1]: 6 (6) no. (%)
- Patients with Nausea, Grade ≥3 [1]: 1 (1) no. (%)
- Patients with Onycholysis, Any grade [1]: 18 (18) no. (%)
- Patients with Onycholysis, Grade 1 [1]: 6 (6) no. (%)
- Patients with Onycholysis, Grade 2 [1]: 10 (10) no. (%)
- Patients with Onycholysis, Grade ≥3 [1]: 2 (2) no. (%)
- Patients with Onychomadesis, Any grade [1]: 7 (7) no. (%)
- Patients with Onychomadesis, Grade 1 [1]: 2 (2) no. (%)
- Patients with Onychomadesis, Grade 2 [1]: 5 (5) no. (%)
- Patients with Onychomadesis, Grade ≥3 [1]: 0 no. (%)
- Patients with Oropharyngeal pain, Any grade [1]: 10 (10) no. (%)
- Patients with Oropharyngeal pain, Grade 1 [1]: 8 (8) no. (%)
- Patients with Oropharyngeal pain, Grade 2 [1]: 1 (1) no. (%)
- Patients with Oropharyngeal pain, Grade ≥3 [1]: 1 (1) no. (%)
- Patients with Pain in extremity, Any grade [1]: 12 (12) no. (%)
- Patients with Pain in extremity, Grade 1 [1]: 10 (10) no. (%)
- Patients with Pain in extremity, Grade 2 [1]: 2 (2) no. (%)
- Patients with Pain in extremity, Grade ≥3 [1]: 0 no. (%)
- Patients with Paronychia, Any grade [1]: 17 (17) no. (%)
- Patients with Paronychia, Grade 1 [1]: 3 (3) no. (%)
- Patients with Paronychia, Grade 2 [1]: 11 (11) no. (%)
- Patients with Paronychia, Grade ≥3 [1]: 3 (3) no. (%)
- Patients with Peripheral edema, Any grade [1]: 9 (9) no. (%)
- Patients with Peripheral edema, Grade 1 [1]: 5 (5) no. (%)
- Patients with Peripheral edema, Grade 2 [1]: 3 (3) no. (%)
- Patients with Peripheral edema, Grade ≥3 [1]: 1 (1) no. (%)
- Patients with Pyrexia, Any grade [1]: 13 (13) no. (%)
- Patients with Pyrexia, Grade 1 [1]: 8 (8) no. (%)
- Patients with Pyrexia, Grade 2 [1]: 5 (5) no. (%)
- Patients with Pyrexia, Grade ≥3 [1]: 0 no. (%)
- Patients with Retinal detachment, Any grade [1]: 5 (5) no. (%)
- Patients with Retinal detachment, Grade 1 [1]: 3 (3) no. (%)
- Patients with Retinal detachment, Grade 2 [1]: 2 (2) no. (%)
- Patients with Retinal detachment, Grade ≥3 [1]: 0 no. (%)
- Patients with Stomatitis, Any grade [1]: 57 (58) no. (%)
- Patients with Stomatitis, Grade 1 [1]: 21 (21) no. (%)
- Patients with Stomatitis, Grade 2 [1]: 26 (26) no. (%)
- Patients with Stomatitis, Grade ≥3 [1]: 10 (10) no. (%)
- Patients with Urinary tract infection, Any grade [1]: 16 (16) no. (%)
- Patients with Urinary tract infection, Grade 1 [1]: 0 no. (%)
- Patients with Urinary tract infection, Grade 2 [1]: 11 (11) no. (%)
- Patients with Urinary tract infection, Grade ≥3 [1]: 5 (5) no. (%)
- Patients with Vision blurred, Any grade [1]: 17 (17) no. (%)
- Patients with Vision blurred, Grade 1 [1]: 10 (10) no. (%)
- Patients with Vision blurred, Grade 2 [1]: 7 (7) no. (%)
- Patients with Vision blurred, Grade ≥3 [1]: 0 no. (%)
- Patients with Vomiting, Any grade [1]: 13 (13) no. (%)
- Patients with Vomiting, Grade 1 [1]: 10 (10) no. (%)
- Patients with Vomiting, Grade 2 [1]: 1 (1) no. (%)
- Patients with Vomiting, Grade ≥3 [1]: 2 (2) no. (%)
- Patients with Weight decreased, Any grade [1]: 15 (15) no. (%)
- Patients with Weight decreased, Grade 1 [1]: 7 (7) no. (%)
- Patients with Weight decreased, Grade 2 [1]: 8 (8) no. (%)
- Patients with Weight decreased, Grade ≥3 [1]: 0 no. (%)
- Patients with Alopecia, Grade ≥3 [2]: 0 no.
- Patients with Decreased appetite, Grade ≥3 [2]: 0 no.
- Patients with Dry mouth, Grade ≥3 [2]: 0 no.
- Patients with Dry skin, Grade ≥3 [2]: 0 no.
- Patients with Urinary tract infection, Grade 1 [2]: 0 no.
- Patients with Vision blurred, Grade ≥3 [2]: 0 no.
- Patients with some type of eye disorder, regardless of relation to treatment (8 mg per day continuous): 63%
- Patients with grade ≥3 treatment-emergent adverse events (8 mg per day continuous group uptitrated to 9 mg per day): 68%
- Patients with Abdominal pain, Any grade [3]: 5 (15) no. (%)
- Patients with Abdominal pain, Grade 1 [3]: 2 (6) no. (%)
- Patients with Abdominal pain, Grade 2 [3]: 2 (6) no. (%)
- Patients with Abdominal pain, Grade ≥3 [3]: 1 (3) no. (%)
- Patients with Alanine aminotransferase increased, Any grade [3]: 1 (3) no. (%)
- Patients with Alanine aminotransferase increased, Grade 1 [3]: 0 no. (%)
- Patients with Alanine aminotransferase increased, Grade 2 [3]: 1 (3) no. (%)
- Patients with Alanine aminotransferase increased, Grade ≥3 [3]: 0 no. (%)
- Patients with Alopecia, Any grade [3]: 4 (12) no. (%)
- Patients with Alopecia, Grade 1 [3]: 2 (6) no. (%)
- Patients with Alopecia, Grade 2 [3]: 2 (6) no. (%)
- Patients with Alopecia, Grade ≥3 [3]: 0 no. (%)
- Patients with Anemia, Any grade [3]: 8 (24) no. (%)
- Patients with Anemia, Grade 1 [3]: 1 (3) no. (%)
- Patients with Anemia, Grade 2 [3]: 1 (3) no. (%)
- Patients with Anemia, Grade ≥3 [3]: 6 (18) no. (%)
- Patients with Arthralgia, Any grade [3]: 7 (21) no. (%)
- Patients with Arthralgia, Grade 1 [3]: 3 (9) no. (%)
- Patients with Arthralgia, Grade 2 [3]: 2 (6) no. (%)
- Patients with Arthralgia, Grade ≥3 [3]: 2 (6) no. (%)
- Patients with Aspartate aminotransferase increased, Any grade [3]: 2 (6) no. (%)
- Patients with Aspartate aminotransferase increased, Grade 1 [3]: 2 (6) no. (%)
- Patients with Aspartate aminotransferase increased, Grade 2 [3]: 0 no. (%)
- Patients with Aspartate aminotransferase increased, Grade ≥3 [3]: 0 no. (%)
- Patients with Asthenia, Any grade [3]: 10 (30) no. (%)
- Patients with Asthenia, Grade 1 [3]: 5 (15) no. (%)
- Patients with Asthenia, Grade 2 [3]: 3 (9) no. (%)
- Patients with Asthenia, Grade ≥3 [3]: 2 (6) no. (%)
- Patients with Back pain, Any grade [3]: 5 (15) no. (%)
- Patients with Back pain, Grade 1 [3]: 1 (3) no. (%)
- Patients with Back pain, Grade 2 [3]: 1 (3) no. (%)
- Patients with Back pain, Grade ≥3 [3]: 3 (9) no. (%)
- Patients with Blood creatinine increased, Any grade [3]: 4 (12) no. (%)
- Patients with Blood creatinine increased, Grade 1 [3]: 3 (9) no. (%)
- Patients with Blood creatinine increased, Grade 2 [3]: 1 (3) no. (%)
- Patients with Blood creatinine increased, Grade ≥3 [3]: 0 no. (%)
- Patients with Conjunctivitis, Any grade [3]: 4 (12) no. (%)
- Patients with Conjunctivitis, Grade 1 [3]: 3 (9) no. (%)
- Patients with Conjunctivitis, Grade 2 [3]: 1 (3) no. (%)
- Patients with Conjunctivitis, Grade ≥3 [3]: 0 no. (%)
- Patients with Constipation, Any grade [3]: 14 (42) no. (%)
- Patients with Constipation, Grade 1 [3]: 8 (24) no. (%)
- Patients with Constipation, Grade 2 [3]: 6 (18) no. (%)
- Patients with Constipation, Grade ≥3 [3]: 0 no. (%)
- Patients with Decreased appetite, Any grade [3]: 11 (33) no. (%)
- Patients with Decreased appetite, Grade 1 [3]: 4 (12) no. (%)
- Patients with Decreased appetite, Grade 2 [3]: 6 (18) no. (%)
- Patients with Decreased appetite, Grade ≥3 [3]: 1 (3) no. (%)
- Patients with Diarrhea, Any grade [3]: 14 (42) no. (%)
- Patients with Diarrhea, Grade 1 [3]: 7 (21) no. (%)
- Patients with Diarrhea, Grade 2 [3]: 6 (18) no. (%)
- Patients with Diarrhea, Grade ≥3 [3]: 1 (3) no. (%)
- Patients with Dry eye, Any grade [3]: 3 (9) no. (%)
- Patients with Dry eye, Grade 1 [3]: 2 (6) no. (%)
- Patients with Dry eye, Grade 2 [3]: 1 (3) no. (%)
- Patients with Dry eye, Grade ≥3 [3]: 0 no. (%)
- Patients with Dry mouth, Any grade [3]: 16 (48) no. (%)
- Patients with Dry mouth, Grade 1 [3]: 15 (46) no. (%)
- Patients with Dry mouth, Grade 2 [3]: 1 (3) no. (%)
- Patients with Dry mouth, Grade ≥3 [3]: 0 no. (%)
- Patients with Dry skin, Any grade [3]: 9 (27) no. (%)
- Patients with Dry skin, Grade 1 [3]: 8 (24) no. (%)
- Patients with Dry skin, Grade 2 [3]: 1 (3) no. (%)
- Patients with Dry skin, Grade ≥3 [3]: 0 no. (%)
- Patients with Dysgeusia, Any grade [3]: 10 (30) no. (%)
- Patients with Dysgeusia, Grade 1 [3]: 7 (21) no. (%)
- Patients with Dysgeusia, Grade 2 [3]: 3 (9) no. (%)
- Patients with Dysgeusia, Grade ≥3 [3]: 0 no. (%)
- Patients with Dyspepsia, Any grade [3]: 3 (9) no. (%)
- Patients with Dyspepsia, Grade 1 [3]: 2 (6) no. (%)
- Patients with Dyspepsia, Grade 2 [3]: 1 (3) no. (%)
- Patients with Dyspepsia, Grade ≥3 [3]: 0 no. (%)
- Patients with Dyspnea, Any grade [3]: 8 (24) no. (%)
- Patients with Dyspnea, Grade 1 [3]: 3 (9) no. (%)
- Patients with Dyspnea, Grade 2 [3]: 2 (6) no. (%)
- Patients with Dyspnea, Grade ≥3 [3]: 3 (9) no. (%)
- Patients with Fatigue, Any grade [3]: 6 (18) no. (%)
- Patients with Fatigue, Grade 1 [3]: 4 (12) no. (%)
- Patients with Fatigue, Grade 2 [3]: 2 (6) no. (%)
- Patients with Fatigue, Grade ≥3 [3]: 0 no. (%)
- Patients with Hand-foot syndrome, Any grade [3]: 2 (6) no. (%)
- Patients with Hand-foot syndrome, Grade 1 [3]: 0 no. (%)
- Patients with Hand-foot syndrome, Grade 2 [3]: 2 (6) no. (%)
- Patients with Hand-foot syndrome, Grade ≥3 [3]: 0 no. (%)
- Patients with Hematuria, Any grade [3]: 3 (9) no. (%)
- Patients with Hematuria, Grade 1 [3]: 1 (3) no. (%)
- Patients with Hematuria, Grade 2 [3]: 2 (6) no. (%)
